From article PMC7940615 (Scientific Reports, 2021)
pIC50: −log10 of the molar value.

Legend:
SARS-CoV-2 [1] = assay: Antiviral assay in Vero E6 cells, immunofluorescence of nucleocapsid protein; assay type: cell-based; settings: 72 h post infection; for pIC50: immunofluorescence, MOI 0.1, read-out: IC50, inhibition of SARS-CoV-2 replication
SARS-CoV-2 [2] = assay: Antiviral assay in human lung A549 cells (ACE2, TMPRSS2), immunofluorescence of nucleocapsid protein; assay type: cell-based; settings: human lung A549 cells expressing ACE2 and TMPRSS2
SARS-CoV-2 [3] = assay: Viral RNA by qRT-PCR in culture medium of Vero E6 cells; assay type: cell-based
SARS-CoV-2 [4] = assay: Viral RNA by qRT-PCR in culture medium of human lung A549 cells; assay type: cell-based
[5] = blood of patients in both clinical studies; cited from earlier work
[6] = test system: hospitalized COVID-19 patients; settings: 1620 patients; total median dose of 136 mg, oral or IV once daily, 6 days; cited from earlier work
[7] = test system: non-hospitalized patients; settings: 10 non-hospitalized patients; oral 240 mg per day for a median of 11 days; cited from earlier work
SARS-CoV-2 [8] = settings: Vero E6 cells; famotidine 0.32–200 µM; remdesivir 0.1–62.5 µM
in vitro = settings: human

Structure (SMILES)	inhibition of SARS-CoV-2 replication (in words) (SARS-CoV-2 [1]; concentrations of up to 200 μM)	inhibition of SARS-CoV-2 replication (in words) (SARS-CoV-2 [2]; 0.32–200 µM, 72 h)	effect on viral RNA copies (qRT-PCR, E gene) (SARS-CoV-2 [3])	effect on viral RNA copies (qRT-PCR, E gene) (SARS-CoV-2 [4])	peak plasma concentrations [5] [µM]	risk of death or intubation [6]	patient-reported symptoms such as shortness of breath and cough [7]	antiviral effect on virus yield (plaque formation) (SARS-CoV-2 [8])	pIC50 (SARS-CoV-2 [1]; Severe acute respiratory syndrome coronavirus 2, Vero C1008, 72 h)	pIC50 (SARS-CoV-2 [1])	pIC50 (SARS-CoV-2 [2]; Severe acute respiratory syndrome coronavirus 2, immunofluorescence, 72 h post infection, MOI 0.1, read-out: IC50, inhibition of SARS-CoV-2 replication)	cytotoxicity (in words) (Vero E6 cells)	cytotoxicity (in words) (human lung A549 cells)	CC50 (in vitro) [µM]
NC(N)=Nc1nc(CSCCC(N)=NS(N)(=O)=O)cs1 [Famotidine]	did not produce any measurable inhibition	no measurable effect	no effect	no effect	0.5 to 2	reduced risk of death or intubation	patient-reported improvements in symptoms	no effect on limiting virus plaque formation						
CCC(CC)COC(=O)[C@H](C)N[P@](=O)(OC[C@H]1O[C@@](C#N)(c2ccc3c(N)ncnn23)[C@H](O)[C@@H]1O)Oc1ccccc1 [Remdesivir, remdesivir]			dose-dependent	dose-dependent				dose-dependent antiviral effect	5.48	5.47	6.37	dose-dependent cytotoxicity at higher concentrations	dose-dependent cytotoxicity at higher concentrations	14.6
